Laboratory results: patent US11246846B2, “Trisodium citrate compositions having enhanced uptake across digestive mucosa” (priority 2017, dated 2022)
Like-named read-outs stand apart in the source and are kept apart here.

What was measured:
[1] = system: Caco2 monolayer; settings: for glutathione diffusion across Caco2: human, 10 mM
Description: (§1) Again, undyed isotonic DPBS as receiver and donor buffer rather than HBSS was used due to interference with HBSS components in the HPLC. […] Samples were taken at 15 minute intervals for 90 minutes and replaced with fresh isotonic DPBS. Samples were taken from donor chamber at time 0 and at 90 minutes.

[2] = system: Caco2 monolayer; experiment: Iso-leucine permeability through Caco2 monolayer with/without TSC (Example IX); assay type: in vitro ADME, human; settings: for iso-leucine diffusion across Caco2: 10 mM in DPBS
Description: (§2) Undyed isotonic DPBS was used as receiver and donor buffer rather than HBSS due to interference with HBSS components and Valine in the HPLC. In brief 3 mM 10 mM Isoleucine or Valine in DPBS alone or with 10 mM trisodium citrate was added to the donor chamber of each of 3 side by side diffusion cells with a confluent Caco 2 Monolayer between (TEER˜900 Ohm*cm2). […] Below are the results of this study in table form, which are graphically illustrated in FIG. 16.

[3] = system: Caco2 monolayer; assay type: in vitro ADME, human; settings: for arginine diffusion across Caco2: human, 10 mM
Source text: In further experiments were undertaken using a Caco-2 cellular model similar to that described in connection with Example II above. […] For these experiments undyed isotonic DPBS was used as receiver and donor buffer rather than HBSS due to interference with HBSS components in the HPLC. […] The results of these studies in graphical form are illustrated in FIGS. 6 and 7.

[4] = system: Caco 2 Monolayer; experiment: L-Arginine and L-Citrulline diffusion across Caco2 monolayer with/without TSC (Example III); assay type: in vitro ADME, human; settings: for arginine diffusion across Caco2: human, 10 mM; for citrulline diffusion across Caco2: 10 mM in DPBS
Description: Thereafter, further diffusion studies were undertaken using a Caco-2 cellular model similar to that described in connection with Example II above. Four formulations were studied, with chemicals present at 10 mM: […]
For these experiments undyed isotonic DPBS was used as the receiver and donor buffer rather than HBSS due to interference with HBSS components in the HPLC. […] Below are the results of these studies.

[5] = system: Caco2 monolayer; experiment: L-Citrulline and L-Leucine permeability through Caco2 monolayer with/without TSC (Example V); assay type: in vitro ADME, human; settings: for citrulline diffusion across Caco2: 10 mM each in DPBS
Description: as §1, with “isotonic DPBS was used as receiver” for “isotonic DPBS as receiver”, “than HBSS due to” for “than HBSS was used due to”

[6] = system: Caco2 monolayer; experiment: Sarcosine and L-Leucine permeability through Caco2 monolayer with/without TSC (Example VI); assay type: in vitro ADME, human; settings: for sarcosine diffusion across Caco2: 10 mM each in DPBS, estimation by subtraction
Source text: On analysis it was discovered that a peak in the receiver side samples which had not interfered with previous samples eluted at the same time as the Sarcosine. The results were adjusted by averaging this peak from time points in previous studies and accordingly, the results represent an estimation by subtraction.

[7] = system: Caco-2 monolayer; experiment: Leucine permeation across Caco-2 model intestinal barrier (Example I); assay type: in vitro ADME, human
Source text: Initially, in order to make a meaningful evaluation of sodium transport of branched-chain amino acids across eukaryotic mucosal cells of the human digestive tract, the inventors elected to test leucine transport using the Caco-2 monolayer model similar to that described by Dash, et al. in “Evaluation of Creatine Transport Using Caco-2 Monolayers” id. The tests were undertaken using a Caco-2 cells so as to more closely approximate transport of creatine and branched-chain amino acids across mucosal cell membranes in vivo than might be reflected in other utilizing non-human cell sources or non-mucosa cell sources. In the permeation tests illustrated herein, simulated gastric and intestinal buffers were made with 0.2 normal (N) NaOH, made by mixing 1 g NaOH as needed with 125 mL deionized water. To simulate intestinal fluid without enzymes, 6.8 g monobasic potassium phosphate were mixed in 77 mL 0.2 N sodium hydroxide, and pH adjusted to 6.8±0.1 using NaOH or HCl, as needed. Thereafter, the solution was diluted to 1 L with deionized water, with a final pH of about 6.8±0.1. To simulate gastric fluid without enzymes, 2.0 g sodium chloride was added to 7.0 mL concentrated HCl, and then diluted to 1 L with deionized water. The pH was approximately 1.2
A repetition in a series of three repetitions was then undertaken to examined the changes in permeation in the presence of a different form of sodium as compared to leucine alone in Hank's Balanced salt solution across a Caco-2 model intestinal barrier (TEER≥1000 ohm*cm2). […] Leucine permeation across the Caco-2 monolayer was measured at 15, 30, 45, 60, 75 and 90 minutes after test initiation in milligrams of leucine per centimeter2 (mg/cm2). Data is summarized in Table I below and illustrated in FIG. 1.

[8] = system: Caco2 monolayer; experiment: Valine permeability across Caco2 monolayer with/without TSC (Example X); assay type: in vitro ADME, human; settings: for valine diffusion across Caco2: 10 mM in DPBS
Description: as §2, with “mM” for “mM Isoleucine or”, “Data is summarized below” for “Below are the results of this study”, “Table X and” for “table form, which are”, “17.” for “16.”

[9] = system: Caco2 monolayer; experiment: Creatine and leucine diffusion across Caco-2 monolayer, sodium/citrate sources (Example II); assay type: in vitro ADME, human; settings: added at 10 mM to creatine monohydrate and leucine
Description: More particularly, after 21 days of growth in Corning® Transwell 6 well plat, trans-epithelial electrical resistance (TEER) was measured across the Caco2 monolayer using an EVOM II TEER meter with an Endohm 24SNAP measuring chambers. Cells were considered ready for use if the average TEER value reached approximately 900 Ohm*cm2. The Caco2 monolayer was then equilibrated in DPBS at 37° C. for 15 minutes. The apical solution was then removed and replaced with the various solutions to be tested. Basolateral chambers were sampled at 15, 30, 45, 60, 75 and 90 minutes and replaced with fresh DPBS. All samples were filtered at 0.45 μm and examined by HPLC. The HPLC analysis utilized a 250 mm×4.6 mm, 5 μm Thermo Scientific BDS Hypersil base deactivated C18 column. The mobile phase consisted of 0.5 M ammonium sulphate at a flow rate of 1.5 m/min. Sample detection was performed at 206 nm using a photodiode array. For this Example II, four formulations were studied, with chemicals present at 10 mM:
For the experiments in this study samples from each formulation were monitored apical to basolateral through a Caco-2 membrane registering an average TEER of 1650 Ohm*cm^2.

N[C@@H](CCC(=O)N[C@@H](CS)C(=O)NCC(=O)O)C(=O)O [Glutathione alone, Glutathione]
Glutathione permeation in the presence of trisodium citrate ([1]; Caco-2): significantly increased | glutathione diffusion across Caco2 ([1]; Caco-2, 15 min): 0.177 μM/cm^2 | glutathione diffusion across Caco2 ([1]; Caco-2, 30 min): 0.467 μM/cm^2 | glutathione diffusion across Caco2 ([1]; Caco-2, 45 min): 0.731 μM/cm^2 | glutathione diffusion across Caco2 ([1]; Caco-2, 60 min): 0.977 μM/cm^2 | glutathione diffusion across Caco2 ([1]; Caco-2, 75 min): 1.227 μM/cm^2 | glutathione diffusion across Caco2 ([1]; Caco-2, 90 min): 1.456 μM/cm^2

CC[C@H](C)[C@H](N)C(=O)O [Iso-leucine alone, iso-leucine]
permeability shift as a result of the addition of trisodium citrate [2]: substantially similar permeability shift and overall permeability increase to that exhibited by leucine | iso-leucine diffusion across Caco2 ([2]; 15 min): 0.271 μM/cm^2 | iso-leucine diffusion across Caco2 ([2]; 30 min): 0.614 μM/cm^2 | iso-leucine diffusion across Caco2 ([2]; 45 min): 0.978 μM/cm^2 | iso-leucine diffusion across Caco2 ([2]; 60 min): 1.333 μM/cm^2 | iso-leucine diffusion across Caco2 ([2]; 75 min): 1.748 μM/cm^2 | iso-leucine diffusion across Caco2 ([2]; 90 min): 2.078 μM/cm^2

N=C(N)NCCC[C@H](N)C(=O)O [L-Arginine alone, L-Arginine]
L-Arginine permeability in the presence of trisodium citrate ([3]; Caco-2): enhanced | arginine diffusion across Caco2 ([3]; Caco-2, 15 min): 1.007 μM/cm^2 | arginine diffusion across Caco2 ([3]; Caco-2, 30 min): 1.511 μM/cm^2 | arginine diffusion across Caco2 ([3]; Caco-2, 45 min): 1.999 μM/cm^2 | arginine diffusion across Caco2 ([3]; Caco-2, 60 min): 2.432 μM/cm^2 | arginine diffusion across Caco2 ([3]; Caco-2, 75 min): 2.982 μM/cm^2 | arginine diffusion across Caco2 ([3]; Caco-2, 90 min): 3.237 μM/cm^2 | arginine diffusion across Caco2 ([4]; Caco-2, 15 min): 0.988 μM/cm^2 | arginine diffusion across Caco2 ([4]; Caco-2, 30 min): 1.453 μM/cm^2 | arginine diffusion across Caco2 ([4]; Caco-2, 45 min): 2.033 μM/cm^2 | arginine diffusion across Caco2 ([4]; Caco-2, 60 min): 2.578 μM/cm^2 | arginine diffusion across Caco2 ([4]; Caco-2, 75 min): 3.005 μM/cm^2 | arginine diffusion across Caco2 ([4]; Caco-2, 90 min): 3.448 μM/cm^2

NC(=O)NCCC[C@H](N)C(=O)O [L-Citrulline alone, L-Citrulline]
effect on L-Citrulline permeability by TSC or L-Leucine [5]: no significant effect | citrulline diffusion across Caco2 ([5]; 15 min): 0.846 μM/cm^2 | citrulline diffusion across Caco2 ([5]; 30 min): 1.174 μM/cm^2 | citrulline diffusion across Caco2 ([5]; 45 min): 1.906 μM/cm^2 | citrulline diffusion across Caco2 ([5]; 60 min): 2.381 μM/cm^2 | citrulline diffusion across Caco2 ([5]; 75 min): 2.699 μM/cm^2 | citrulline diffusion across Caco2 ([5]; 90 min): 3.300 μM/cm^2 | L-Citrulline change in permeability in the presence of TSC ([4]; 10 mM TSC): did not show any significant change | citrulline diffusion across Caco2 ([4]; 15 min): 2.281 μM/cm^2 | citrulline diffusion across Caco2 ([4]; 30 min): 1.428 μM/cm^2 | citrulline diffusion across Caco2 ([4]; 45 min): 1.415 μM/cm^2 | citrulline diffusion across Caco2 ([4]; 60 min): 2.191 μM/cm^2 | citrulline diffusion across Caco2 ([4]; 75 min): 2.457 μM/cm^2 | citrulline diffusion across Caco2 ([4]; 90 min): 2.893 μM/cm^2

CC(C)C[C@H](N)C(=O)O [Leucine]
L-Leucine permeability in the presence of TSC ([6]; in the presence of sarcosine): enhanced | effect on the permeability of glutathione ([1]; Caco-2): no noticeable effect | permeability of Leucine in the presence of trisodium citrate ([1]; Caco-2): enhanced | Leucine permeation across Caco-2 monolayer ([7]; human, Caco-2, 15 min): 0.036 mg/cm2 | Leucine permeation across Caco-2 monolayer ([7]; human, Caco-2, 30 min): 0.052 mg/cm2 | Leucine permeation across Caco-2 monolayer ([7]; human, Caco-2, 45 min): 0.078 mg/cm2 | Leucine permeation across Caco-2 monolayer ([7]; human, Caco-2, 60 min): 0.106 mg/cm2 | Leucine permeation across Caco-2 monolayer ([7]; human, Caco-2, 75 min): 0.128 mg/cm2 | Baseline adj for Leucine w/o Na ([7]; human, Caco-2, 90 min): 0.00 mg/cm2 | Leucine permeation across Caco-2 monolayer ([7]; human, Caco-2, 90 min): 0.151 mg/cm2 | L-Leucine permeability in the presence of TSC ([5]; with L-Citrulline): enhanced | L-Leucine permeability in the presence of trisodium citrate ([3]; Caco-2): enhanced

CNCC(=O)O [Sarcosine alone, Sarcosine]
Sarcosine permeability in the presence of TSC [6]: enhanced | sarcosine diffusion across Caco2 ([6]; 15 min): 0.496 μM/cm^2 | sarcosine diffusion across Caco2 ([6]; 30 min): 0.405 μM/cm^2 | sarcosine diffusion across Caco2 ([6]; 45 min): 0.974 μM/cm^2 | sarcosine diffusion across Caco2 ([6]; 60 min): 1.423 μM/cm^2 | sarcosine diffusion across Caco2 ([6]; 75 min): 2.102 μM/cm^2 | sarcosine diffusion across Caco2 ([6]; 90 min): 1.801 μM/cm^2

CC(C)[C@H](N)C(=O)O [Valine alone, Valine]
valine diffusion across Caco2 ([8]; 15 min): 1.388 μM/cm^2 | valine diffusion across Caco2 ([8]; 30 min): 1.431 μM/cm^2 | valine diffusion across Caco2 ([8]; 45 min): 1.537 μM/cm^2 | valine diffusion across Caco2 ([8]; 60 min): 1.682 μM/cm^2 | valine diffusion across Caco2 ([8]; 75 min): 1.841 μM/cm^2 | valine diffusion across Caco2 ([8]; 90 min): 2.081 μM/cm^2 | permeability shift in the presence of trisodium citrate ([8]; compared to iso-leucine and leucine): significantly greater permeability shift and overall higher permeability

O=C1O[C@H]([C@@H](O)CO)C([O-])=C1O.[Na+] [sodium ascorbate]
permeation of leucine in the presence of the sodium source ([7]; compared to leucine alone / sodium ascorbate): slight increase

[Cl-].[Na+] [sodium chloride]
effect on leucine permeability [9]: did produce an effect | effect on permeability of creatine monohydrate [9]: enhanced
